From US7566781B2, “Imidazopyridine compound” (Banyu Pharmaceutical Co., Ltd., priority 2004, dated 2009) come the findings set out here.

In this assay the target is T1, human MCH-1R (Homo sapiens, UniProt Q99705).
T1 construct: expressed in transfected cells; host or cells: CHO-K1 (American Type Culture Collection), membrane samples
T1 sequence (Q99705 whole entry): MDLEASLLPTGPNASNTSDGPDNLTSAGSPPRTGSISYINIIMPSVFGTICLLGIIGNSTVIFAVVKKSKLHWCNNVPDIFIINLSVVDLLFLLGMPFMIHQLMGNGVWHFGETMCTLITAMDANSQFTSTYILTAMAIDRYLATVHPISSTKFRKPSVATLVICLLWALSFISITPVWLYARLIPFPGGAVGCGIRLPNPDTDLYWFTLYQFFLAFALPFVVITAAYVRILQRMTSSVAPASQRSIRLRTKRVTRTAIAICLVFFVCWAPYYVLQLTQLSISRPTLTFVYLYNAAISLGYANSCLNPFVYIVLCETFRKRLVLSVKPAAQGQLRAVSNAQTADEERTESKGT
The assay can be described thus: MCH binding inhibition test. The following applies: membranes of MCH-1R expressing CHO-K1 cells, 50 pM [125I]MCH, 25° C., 1 hour, pH 7.4; read-out: IC50 (50% inhibition concentration of test compound to the specific [125I]MCH binding). The procedure: A human MCH-1R encoding cDNA sequence [FEBS Letters, Vol. 398, 253 (1996); Biochimica et Biophisica Acta, Vol. 1401, 216 (1998)] was cloned to plasmid vector pEF/myc/cyto (Invitrogen Corporation). The obtained expression vector was transfected to a host cell CHO-K1 (American Type Culture Collection) using Lipofectamine Plus Reagent (Life Technology Inc.) to provide MCH-1R expression cells.
Membrane samples prepared from the MCH-1R expression cells were incubated with each test compound and 50 pM of [^125I]MCH (NEN Co.), in an assay buffer (50 mM Tris buffer comprising 10 mM magnesium chloride, 2 mM ethylenediamine tetraacetate, 0.01% bacitracin and 0.2% bovine serum albumin; pH 7.4) at 25° C. for an hour, followed by filtration through Glass Filter GF/C (Wattman Co.). After washing the glass filter with 50 mM Tris buffer (pH 7.4) comprising 10 mM magnesium chloride, 2 mM ethylenediamine tetraacetate and 0.04% Tween-20, the radioactive activity on the glass filter was measured. The non-specific binding was measured in the presence of 1 μM human MCH and 50% inhibition concentration (IC50 value) of each test compound to the specific [^125I]MCH binding was determined.
On to `Cc1c(C2CCOC2)nc2ccc(NC(=O)c3ccc(/C(F)=C/c4ccccn4)cc3)cn12` (stereo not drawn) [Example 42], for which the IC50 turned out to be 4.8 nM.

Take `Cc1c(C(C)C)nc2ccc(NC(=O)c3ccc(CCc4ccccn4)cc3)cn12` [Example 49, N-(2-isopropyl-3-methylimidazo[1,2-a]pyridin-6-yl)-4-(2-pyridin-2-ylethyl)benzamide]: the IC50 came to 6.2 nM.

Consider `Cc1c(C2CC2)nc2ccc(NC(=O)c3ccc(COc4ccccn4)cc3)cn12` [Example 25], for which the IC50 turned out to be 8.4 nM.

As to `CCc1nc2ccc(NC(=O)c3ccc(OCc4ccc(F)cn4)c(F)c3)cn2c1C` [Example 11, N-(2-ethyl-3-methylimidazo[1,2-a]pyridin-6-yl)-3-fluoro-4-[(5-fluoropyridin-2-yl)methoxy]benzamide], the IC50 worked out at 2.2 nM.

With `CCc1nc2ccc(NC(=O)c3ccc(OCc4ccccn4)c(F)c3)cn2c1C` [Example 9, N-(2-ethyl-3-methylimidazo[1,2-a]pyridin-6-yl)-3-fluoro-4-(pyridin-2-ylmethoxy)benzamide], the IC50 is 3.4 nM.

For `Cc1c(CCCN2CCCC2)nc2ccc(NC(=O)c3ccc(/C=C/c4ccccn4)cc3)cn12` [Example 48, N-[3-methyl-2-(3-pyrrolidin-1-ylpropyl)imidazo[1,2-a]pyridin-6-yl]-4-[(E)-2-pyridin-2-ylvinyl]benzamide], the IC50 is 0.47 nM.

Take `Cc1c(C2CC2)nc2ccc(NC(=O)c3ccc(NC(=O)c4ccccn4)cc3)cn12` [Example 61, Pyridine-2-carboxylic acid[4-(2-cyclopropyl-3-methylimidazo[1,2-a]pyridin-6-ylcarbamoyl)phenyl]amide]: the IC50 is 4.7 nM.

On to `CCc1nc2ccc(NC(=O)c3ccc(Oc4cc(Cl)ccn4)cc3)cn2c1C` [Example 67, 4-(4-Chloropyridin-2-yloxy)-N-(2-ethyl-3-methylimidazo[1,2-a]pyridin-6-yl)benzamide], for which the IC50 was determined as 4.3 nM.

For the compound `Cc1c(C2CCOC2)nc2ccc(NC(=O)c3ccc(SCc4ccccn4)cc3)cn12` (stereo not drawn) [Example 59, N-[3-methyl-2-(tetrahydrofuran-3-yl)imidazo[1,2-a]pyridin-6-yl]-4-(pyridin-2-ylmethylsulfanyl)benzamide], the IC50 amounted to 3.8 nM.

With `CCc1nc2ccc(NC(=O)c3ccc(/C=C/c4ccccc4)cc3)cn2c1C` [Example 28, N-(2-ethyl-3-methylimidazo[1,2-a]pyridin-6-yl)-4-((E)-2-phenylvinyl)benzamide], the IC50 is 1.3 nM.

On to `Cc1c(CCCN2CCCC2)nc2ccc(NC(=O)c3ccc(OCc4ccccc4)cc3)cn12` [Example 17], for which the IC50 is 0.49 nM.

With `CCc1nc2ccc(NC(=O)c3ccc(C(F)Cc4ccccn4)cc3)cn2c1C` (stereo not drawn) [Example 58, N-(2-ethyl-3-methylimidazo[1,2-a]pyridin-6-yl)-4-(1-fluoro-2-pyridin-2-ylethyl)benzamide], the IC50 was 3.8 nM.
